This note sets out measurements from patent US20230011652A1, “COMPOUNDS AND COMPOSITIONS FOR TREATING CONDITIONS ASSOCIATED WITH NLRP ACTIVITY” (Novartis AG, priority 2018, published 2023).

The structures appear in SMILES notation.

The subject of one test is IL-1β production in PMA-differentiated THP-1 cells. Description: IL-1β production in PMA-differentiated THP-1 cells stimulated with gramicidin (hTHP-1 assay, 2% fetal bovine serum). It counts as cell-based. Conditions: Homo sapiens, Table 2, hTHP-1 assay containing 2% fetal bovine serum, average, read-out: hTHP-1 IC50 (Average IC50 of compounds in hTHP-1 assay). The procedure: Procedure 1: IL-1β production in PMA-differentiated THP-1 cells stimulated with Gramicidin.
THP-1 cells were purchased from the American Type Culture Collection and sub-cultured according to instructions from the supplier. Prior to experiments, cells were cultured in complete RPMI 1640 (containing 10% heat inactivated FBS, penicillin (100 units/ml) and streptomycin (100 μg/ml)), and maintained in log phase prior to experimental setup. Prior to the experiment THP-1 were treated with PMA (Phorbol 12-myristate 13-acetate) (20 ng/ml) for 16-18 hours. Compounds were dissolved in dimethyl sulfoxide (DMSO) to generate a 30 mM stock. On the day of the experiment the media was removed and adherent cells were detached with trypsin for 5 minutes. Cells were then harvested, washed with complete RPMI 1640, spun down, resuspended in RPMI 1640 (containing 2% heat inactivated FBS, penicillin (100 units/ml) and streptomycin (100 μg/ml). The cells were plated in a 384-well plate at a density of 50,000 cells/well (final assay volume 50 μl). Compounds were first dissolved in assay medium to obtain a 5× top concentration of 500 μM. 10 step dilutions (1:3) were then undertaken in assay medium containing 1.67% DMSO. 5× compound solutions were added to the culture medium to achieve desired final concentration (e.g. 100, 33, 11, 3.7, 1.2, 0.41, 0.14, 0.046, 0.015, 0.0051, 0.0017 μM). Final DMSO concentration was at 0.37%. Cells were incubated with compounds for 1 hour and then stimulated with gramicidin (5 μM) (Enzo) for 2 hours. Plates were then centrifuged at 340 g for 5 min. Cell free supernatant (40 μL) was collected using a 96-channel PlateMaster (Gilson) and the production of IL-1β was evaluated by HTRF (cisbio). A vehicle only control and a dose titration of CRID3 (100-0.0017 μM) were run concurrently with each experiment. Data was normalized to vehicle-treated samples (equivalent to 0% inhibition) and CRID3 at 100 μM (equivalent to 100% inhibition).
(§1) 1.1 Cell Culture • 1) Culture THP-1 cells in the complete RPMI-1640 medium with 10% FBS at 37° C., 5% CO2. • 2) Passage the cells every 3 days by inoculating 3×10^5 cells per ml.
(§2) 1.2 Compound Preparation • Prepare the 3-fold serial dilution of the compounds with DMSO in a 384-well LDV Microplate using TECAN EVO system to generate the compound source plate with 10 concentrations. Top concentration is 30 mM.
(§3) 1.3 Cell Preparation • 1) Centrifuge THP-1 cells at 350 g for 5 min. • 2) Re-suspend cells with complete RMPI-1640 medium, and count cells. • 3) Seed cells in T225 flask, about 2.5×10^7 per flask, treat cells with 20 ng/ml PMA (final DMSO concentration<1%). • 4) Incubate overnight.
1.4 THP-1 Stimulation • 1) Wash adherent THP-1 cells with PBS, and detach cells with 4 ml trypsin for T225 flask. • 2) Centrifuge cells at 350 g for 5 min, re-suspend cells with RPMI-1640 containing 2% FBS and count cells with trypan blue. • 3) Transfer 50 nl/well the serial dilution of test compound to 384-well plate by Echo; For the high control and first point of CRID3 (MCC950), transfer 165 nl, then backfill to make the DMSO concentration is consistent in all wells, the plate layout is as below. • 4) Seed 50k cells in 40 ul RPMI-1640 with 2% FBS per well in 384-well plate. • 5) Incubate for 1 h at 37′C, 5% CO2. • 6) Prepare 5× gramicidin, add 10 μl per well, the final concentration is 5 μM, incubate for 2 hrs at 37° C., 5% CO2. • 7) Centrifuge at 350 g for 1 min. • 8) Pipet 16 μl supernatant by apricot, and transfer into white 384 proxiplate. FIG. 3 depicts the layout of the plates: HC: 100 μM CRID3 (MCC950)+5 μM gramicidin LC: 5 μM Gramicidin.
1.5 IL-1β detection • 1) Homogenize the 5× diluent #5 with a vortex and add 1 volume of stock solution in 4 volumes of distilled water. • 2) Thaw 20× stock solution of anti-IL1β-Cryptate-antibody and anti-IL1β XL-antibody. […]
For orientation: IC50 means the concentration at which inhibition is half-maximal. Turning to `O=C(Nc1c2c(nc3c1CCC3)CCC2)NS(=O)(=O)c1cnn2c1OCCC2` [Compound 12, Sodium ((6,7-dihydro-5H-pyrazolo[5,1-b][1,3]oxazin-3-yl)sulfonyl)((1,2,3,5,6,7-hexahydrodicyclopenta[b,e]pyridin-8-yl)carbamoyl)amide], the IC50 is 200 to 1000 nM.
As to `O=C(Nc1c2c(cc3c1CC3)CCC2)NS(=O)(=O)c1cnn2c1OC[C@H](O)C2` [Compound 402, (R)-6-hydroxy-N-((2,4,5,6-tetrahydro-1H-cyclobuta[f]inden-3-yl)carbamoyl)-6,7-dihydro-5H-pyrazolo[5,1-b][1,3]oxazine-3-sulfonamide], the IC50 lay in the range of 40 to 200 nM.
The same measure, in the same setting: the same measure for `C[C@@H]1CCc2c1nc1c(c2NC(=O)NS(=O)(=O)c2cnn3c2OCCC3)CCC1` [Compound 404]: 200 to 1000 nM; for `O=C(Nc1c2c(nc3c1CCC31CC1)CCC2)NS(=O)(=O)c1cnn2c1OCCC2` [Compound 15, Sodium ((6,7-dihydro-5H-pyrazolo[5,1-b][1,3]oxazin-3-yl)sulfonyl)((1′,5′,6′,7′-tetrahydro-2′H-spiro[cyclopropane-1,3′-dicyclopenta[b,e]pyridin]-8′-yl)carbamoyl)amide]: 1000 to 5000 nM.
The same measure, in the same setting: the value for `CC1CCc2c1nc1c(c2NC(=O)NS(=O)(=O)c2cnn3c2OCCC3)CCC1` (stereo not drawn) [Compound 13, Sodium ((6,7-dihydro-5H-pyrazolo[5,1-b][1,3]oxazin-3-yl)sulfonyl)((3-methyl-1,2,3,5,6,7-hexahydrodicyclopenta[b,e]pyridin-8-yl)carbamoyl)amide] was 200 to 1000 nM; that for `O=C(Nc1cc2c(c3c1CCC3)CCC2)NS(=O)(=O)c1cnn2c1OCCC2` [Compound 10, N-((1,2,3,6,7,8-hexahydro-as-indacen-4-yl)carbamoyl)-6,7-dihydro-5H-pyrazolo[5,1-b][1,3]oxazine-3-sulfonamide] was 1000 to 5000 nM; that for `O=C(Nc1c2c(cc3c1CCC3)CCC2)NS(=O)(=O)c1cnn2c1OC[C@H](OC(=O)Nc1c3c(cc4c1CCC4)CCC3)C2` [Compound 403, (R)-3-(N-((1,2,3,5,6,7-hexahydro-s-indacen-4-yl)carbamoyl)sulfamoyl)-6,7-dihydro-5H-pyrazolo[5,1-b][1,3]oxazin-6-yl (1,2,3,5,6,7-hexahydro-s-indacen-4-yl)carbamate] was 5000 to 30000 nM.
On to `CC1(C)CCc2c1nc1c(c2NC(=O)NS(=O)(=O)c2cnn3c2OCCC3)CCC1` [Compound 14], for which the IC50 fell in the range of 1000 to 5000 nM.
Same read-out and setting: the same measure for `O=C(Nc1c2c(cc3c1CC3)CC2)NS(=O)(=O)c1cnn2c1OCCC2` [Compound 9, N-(tricyclo[6.2.0.03,6]deca-1,3(6),7-trien-2-ylcarbamoyl)-6,7-dihydro-5H-pyrazolo[5,1-b][1,3]oxazine-3-sulfonamide]: 40 to 200 nM; for `CN[C@H]1COc2c(S(=O)(=O)NC(=O)Nc3c4c(cc5c3CC5)CCC4)cnn2C1` [Compound 401, (R)-6-(methylamino)-N-((2,4,5,6-tetrahydro-1H-cyclobuta[f]inden-3-yl)carbamoyl)-6,7-dihydro-5H-pyrazolo[5,1-b][1,3]oxazine-3-sulfonamide]: less than 8 nM; for `Cc1c(C2CC2)nc2c(c1NC(=O)NS(=O)(=O)c1cnn3c1OCCC3)CCC2` [Compound 16, Sodium ((2-cyclopropyl-3-methyl-6,7-dihydro-5H-cyclopenta[b]pyridin-4-yl)carbamoyl)((6,7-dihydro-5H-pyrazolo[5,1-b][1,3]oxazin-3-yl)sulfonyl)amide]: 1000 to 5000 nM.
Same read-out and setting: the value for `O=C(Nc1c2c(cc3c1CC3)CCC2)NS(=O)(=O)c1cnn2c1OCCC2` [Compound 8, N-((2,4,5,6-tetrahydro-1H-cyclobuta[f]inden-3-yl)carbamoyl)-6,7-dihydro-5H-pyrazolo[5,1-b][1,3]oxazine-3-sulfonamide] was 200 to 1000 nM.

The test is the same for the next values; noted with them: Homo sapiens, Table 3, hTHP-1 assay containing 2% fetal bovine serum, average, read-out: hTHP-1 IC50 (Average IC50 of compounds in hTHP-1 assay).
With `CC(C)n1ccc(S(=O)(=O)NC(=O)Nc2c3c(cc4c2CC4)CCC3)n1` [Compound 302, 1-Isopropyl-N-((2,4,5,6-tetrahydro-1H-cyclobuta[f]inden-3-yl)carbamoyl)-1H-pyrazole-3-sulfonamide], the IC50 was in the range of 1000 to 5000 nM.
Same read-out and setting: the value for `CC(C)(O)c1coc(S(=O)(=O)NC(=O)Nc2c3c(cc4c2CC4)CCC3)c1` [Compound 301, 4-(2-Hydroxypropan-2-yl)-N-((2,4,5,6-tetrahydro-1H-cyclobuta[f]inden-3-yl)carbamoyl)furan-2-sulfonamide] was 40 to 200 nM.

The test system is the same in another test. Kind of test: hTHP-1 assay containing 10% fetal bovine serum (IL-1β production, gramicidin stimulation). Conditions: Homo sapiens, Table 4, average, read-out: hTHP-1 IC50 in 10% FBS (Average IC50 of compounds in hTHP-1 assay). Type of test: cell-based. The procedure:
as §1, §2, §3
FIG. 3 depicts the layout of the plates: HC: 100 μM CRID3 (MCC950)+5 μM gramicidin LC: 5 μM Gramicidin.
1.5 IL-1β detection • 1) Homogenize the 5× diluent #5 with a vortex and add 1 volume of stock solution in 4 volumes of distilled water. • 2) Thaw 20× stock solution of anti-IL1β-Cryptate-antibody and anti-IL1β XL-antibody. Dilute these two antibodies to 1× with detection buffer #3. • 3) Pre-mix the two ready-to-use antibody solutions just prior to use. • 4) Dispense 4 ul of pre-mixed Anti-IL1β antibodies working solution into all wells. • 5) Seal the plate and incubate overnight at 4° C. • 6) Read the cell plate using EnVison and plot Readout vs. the test compound concentration to calculate the IC50.
• 1. IC50 of compounds can be calculated using the following formulas
% inhibition=100−100×[HCave−Readout/(HCave−LCave)] Formula for IC50 • 2. Fit the normalized data in a dose-response manner using XLfit, and calculate the compound concentration.
Consider `CCn1ccc(S(=O)(=O)NC(=O)Nc2c3c(cc4c2CCC4)CCC3)n1` [Example 17, 1-Ethyl-N-((1,2,3,5,6,7-hexahydro-s-indacen-4-yl)carbamoyl)-1H-pyrazole-3-sulfonamide], for which the 50% inhibitory concentration (IC50) was 1000 to 5000 nM.
On the same count and under the same terms, the value for `CCn1cc(F)c(S(=O)(=O)NC(=O)Nc2c3c(cc4c2CC4)CCC3)n1` [Example 18, 1-Ethyl-4-fluoro-N-((2,4,5,6-tetrahydro-1H-cyclobuta[f]inden-3-yl)carbamoyl)-1H-pyrazole-3-sulfonamide] was 200 to 1000 nM; that for `CCn1cc(F)c(S(=O)(=O)NC(=O)Nc2c3c(cc4c2CCC4)CCC3)n1` [Example 16, 1-Ethyl-4-fluoro-N-((1,2,3,5,6,7-hexahydro-s-indacen-4-yl)carbamoyl)-1H-pyrazole-3-sulfonamide] was 200 to 1000 nM.
Same read-out and setting: the value for `CCn1ccc(S(=O)(=O)NC(=O)Nc2c3c(cc4c2CC4)CCC3)n1` [Example 19, 1-Ethyl-N-((2,4,5,6-tetrahydro-1H-cyclobuta[f]inden-3-yl)carbamoyl)-1H-pyrazole-3-sulfonamide] was 200 to 1000 nM.
